Assay results taken from patent publication US9073855B2, “BCL-2 selective apoptosis-inducing agents for the treatment of cancer and immune diseases” (AbbVie Inc., priority 2008, dated 2015).

Columns and labels:
[1] = molecular target: GST-Bcl-2 (Homo sapiens, UniProt P10415); assay: TR-FRET binding assay, GST-Bcl-2 with F-Bak peptide probe; conditions: for Ki: TR-FRET Binding Affinity; for Binding selectivity ratio (Bcl-XL Ki/Bcl-2 Ki): TR-FRET, Bcl-XL Ki divided by Bcl-2 Ki
Outline: (§1)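 Compounds were serially diluted in DMSO from a 50 μM starting solution (2× the starting concentration; 10% DMSO). Plates were incubated for 3 h at room temperature, and TR-FRET was read with 340/35 nm excitation and emission at 520/525 nm (F-Bak) and 495/510 nm (Tb antibody). Ki values were calculated using Wang's competitive-binding equation.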

[2] = molecular target: GST-Bcl-XL (Homo sapiens, UniProt Q07817); assay: TR-FRET binding assay, GST-Bcl-XL with F-Bak peptide probe; conditions: TR-FRET Binding Affinity
Sequence of GST-Bcl-XL (Q07817 whole entry): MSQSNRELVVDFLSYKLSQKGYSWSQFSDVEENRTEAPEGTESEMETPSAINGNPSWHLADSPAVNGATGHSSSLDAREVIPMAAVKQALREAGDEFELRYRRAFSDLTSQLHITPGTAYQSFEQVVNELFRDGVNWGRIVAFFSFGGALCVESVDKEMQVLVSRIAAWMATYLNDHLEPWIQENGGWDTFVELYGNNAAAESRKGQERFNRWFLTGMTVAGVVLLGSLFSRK
Outline: as §1

Sequence of GST-Bcl-2 (P10415 whole entry): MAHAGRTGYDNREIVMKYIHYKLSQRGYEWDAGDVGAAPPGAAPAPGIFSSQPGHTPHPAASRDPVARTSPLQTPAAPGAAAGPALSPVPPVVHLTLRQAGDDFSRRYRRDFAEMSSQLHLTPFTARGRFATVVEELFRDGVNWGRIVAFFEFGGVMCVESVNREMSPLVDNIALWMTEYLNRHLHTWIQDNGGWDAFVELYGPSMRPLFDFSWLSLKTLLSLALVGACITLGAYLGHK

Row | Structure (SMILES) | Ki [1] [nM] | Binding selectivity ratio (Bcl-XL Ki/Bcl-2 Ki) [1] | Ki [2] [nM]
1 | COC(=O)N1CCOC(CNc2ccc(S(=O)(=O)NC(=O)c3ccc(N4CCN(CC5=C(c6ccc(Cl)cc6)CC(C)(C)CC5)CC4)cc3Oc3cccc4[nH]ncc34)cc2[N+](=O)[O-])C1 (stereo not drawn) [Example 505, methyl 2-{[(4-{[4-(4-{[2-(4-chlorophenyl)-4,4-dimethylcyclohex-1-en-1-yl]methyl}piperazin-1-yl)-2-(1H-indazol-4-yloxy)benzoyl]sulfamoyl}-2-nitrophenyl)amino]methyl}morpholine-4-carboxylate] | < 0.01 | >486.1 | 4.86
2 | CCN(C)C(=O)N1CCOC(CNc2ccc(S(=O)(=O)NC(=O)c3ccc(N4CCN(CC5=C(c6ccc(Cl)cc6)CC(C)(C)CC5)CC4)cc3Oc3cccc4[nH]ncc34)cc2[N+](=O)[O-])C1 (stereo not drawn) [Example 506, 2-{[(4-{[4-(4-{[2-(4-chlorophenyl)-4,4-dimethylcyclohex-1-en-1-yl]methyl}piperazin-1-yl)-2-(1H-indazol-4-yloxy)benzoyl]sulfamoyl}-2-nitrophenyl)amino]methyl}-N-ethyl-N-methylmorpholine-4-carboxamide] | < 0.01 | >445.7 | 4.46
3 | CCN(C)C(=O)N1CCOC(CNc2ccc(S(=O)(=O)NC(=O)c3ccc(N4CCN(CC5=C(c6ccc(Cl)cc6)CC(C)(C)CC5)CC4)cc3Oc3cccc4[nH]cnc34)cc2[N+](=O)[O-])C1 (stereo not drawn) [Example 507, 2-{[(4-{[2-(1H-benzimidazol-4-yloxy)-4-(4-{[2-(4-chlorophenyl)-4,4-dimethylcyclohex-1-en-1-yl]methyl}piperazin-1-yl)benzoyl]sulfamoyl}-2-nitrophenyl)amino]methyl}-N-ethyl-N-methylmorpholine-4-carboxamide] | < 0.01 | >3334.7 | 33.3
4 | CC[C@]1(O)CC[C@H](COc2ncc(S(=O)(=O)NC(=O)c3ccc(N4CCN(CC5=C(c6ccc(Cl)cc6)CC(C)(C)CC5)CC4)cc3Oc3cccc4[nH]ncc34)cc2Cl)CC1 [Example 508, N-({5-chloro-6-[(trans-4-ethyl-4-hydroxycyclohexyl)methoxy]pyridin-3-yl}sulfonyl)-4-(4-{[2-(4-chlorophenyl)-4,4-dimethylcyclohex-1-en-1-yl]methyl}piperazin-1-yl)-2-(1H-indazol-4-yloxy)benzamide] | < 0.01 | >4315.2 | 43.2
5 | CC[C@]1(O)CC[C@@H](COc2ncc(S(=O)(=O)NC(=O)c3ccc(N4CCN(CC5=C(c6ccc(Cl)cc6)CC(C)(C)CC5)CC4)cc3Oc3cccc4[nH]ncc34)cc2Cl)CC1 [Example 509, N-({5-chloro-6-[(cis-4-ethyl-4-hydroxycyclohexyl)methoxy]pyridin-3-yl}sulfonyl)-4-(4-{[2-(4-chlorophenyl)-4,4-dimethylcyclohex-1-en-1-yl]methyl}piperazin-1-yl)-2-(1H-indazol-4-yloxy)benzamide] | 6.3 | 36.4 | 229
6 | CC1(C)CCC(CN2CCN(c3cc(Oc4cccc5[nH]ncc45)c(C(=O)NS(=O)(=O)c4cnc(OCC5(F)CCOCC5)c(Cl)c4)cc3Cl)CC2)=C(c2ccc(Cl)cc2)C1 [Example 510, 5-chloro-N-({5-chloro-6-[(4-fluorotetrahydro-2H-pyran-4-yl)methoxy]pyridin-3-yl}sulfonyl)-4-(4-{[2-(4-chlorophenyl)-4,4-dimethylcyclohex-1-en-1-yl]methyl}piperazin-1-yl)-2-(1H-indazol-4-yloxy)benzamide] | 0.674 | 257.8 | 174
7 | CC1(C)CCC(CN2CCN(c3cc(Oc4cccc5[nH]ncc45)c(C(=O)NS(=O)(=O)c4ccc(NCC5(F)CCOCC5)c([N+](=O)[O-])c4)cc3Cl)CC2)=C(c2ccc(Cl)cc2)C1 [Example 511, 5-chloro-4-(4-{[2-(4-chlorophenyl)-4,4-dimethylcyclohex-1-en-1-yl]methyl}piperazin-1-yl)-N-[(4-{[(4-fluorotetrahydro-2H-pyran-4-yl)methyl]amino}-3-nitrophenyl)sulfonyl]-2-(1H-indazol-4-yloxy)benzamide] | < 0.01 | >2159.2 | 21.6
8 | CC1(C)CCC(CN2CCN(c3ccc(C(=O)NS(=O)(=O)c4cnc(OCC5(F)CCC(C)(O)CC5)c(Cl)c4)c(Oc4cccc5[nH]ncc45)c3)CC2)=C(c2ccc(Cl)cc2)C1 (stereo not drawn) [Example 512, N-({5-chloro-6-[(cis-1-fluoro-4-hydroxy-4-methylcyclohexyl)methoxy]pyridin-3-yl}sulfonyl)-4-(4-{[2-(4-chlorophenyl)-4,4-dimethylcyclohex-1-en-1-yl]methyl}piperazin-1-yl)-2-(1H-indazol-4-yloxy)benzamide] | < 0.01 | >1733.8 | 17.3
9 | CC1(C)CCC(CN2CCN(c3ccc(C(=O)NS(=O)(=O)c4cnc(OC[C@]5(F)CC[C@](C)(O)CC5)c(Cl)c4)c(Oc4cccc5[nH]ncc45)c3)CC2)=C(c2ccc(Cl)cc2)C1 [Example 513, N-({5-chloro-6-[(trans-1-fluoro-4-hydroxy-4-methylcyclohexyl)methoxy]pyridin-3-yl}sulfonyl)-4-(4-{[2-(4-chlorophenyl)-4,4-dimethylcyclohex-1-en-1-yl]methyl}piperazin-1-yl)-2-(1H-indazol-4-yloxy)benzamide] | < 0.01 | >646.2 | 6.46
10 | CC1(C)CCC(CN2CCN(c3ccc(C(=O)NS(=O)(=O)c4ccc(NCC5(F)CCOCC5)c([N+](=O)[O-])c4)c(Oc4cccc5[nH]nnc45)c3)CC2)=C(c2ccc(Cl)cc2)C1 [Example 514, 2-(1H-benzotriazol-4-yloxy)-4-(4-{[2-(4-chlorophenyl)-4,4-dimethylcyclohex-1-en-1-yl]methyl}piperazin-1-yl)-N-[(4-{[(4-fluorotetrahydro-2H-pyran-4-yl)methyl]amino}-3-nitrophenyl)sulfonyl]benzamide] | < 0.01 | >1041.3 | 10.4
11 | CC1(C)CCC(CN2CCN(c3ccc(C(=O)NS(=O)(=O)c4cnc(OCC5(F)CCOCC5)c(Cl)c4)c(Oc4cccc5[nH]nnc45)c3)CC2)=C(c2ccc(Cl)cc2)C1 [Example 515, 2-(1H-benzotriazol-4-yloxy)-N-({5-chloro-6-[(4-fluorotetrahydro-2H-pyran-4-yl)methoxy]pyridin-3-yl}sulfonyl)-4-(4-{[2-(4-chlorophenyl)-4,4-dimethylcyclohex-1-en-1-yl]methyl}piperazin-1-yl)benzamide] | < 0.01 | >13994.0 | 140
12 | CC1(C)CCC(CN2CCN(c3ccc(C(=O)NS(=O)(=O)c4ccc(OCC5CCOCC5)c(Cl)c4)c(Oc4cccc5[nH]cnc45)c3)CC2)=C(c2ccc(Cl)cc2)C1 [Example 516, 2-(1H-benzimidazol-4-yloxy)-4-(4-{[2-(4-chlorophenyl)-4,4-dimethylcyclohex-1-en-1-yl]methyl}piperazin-1-yl)-N-{[3-chloro-4-(tetrahydro-2H-pyran-4-ylmethoxy)phenyl]sulfonyl}benzamide] | < 0.01 | >482.3 | 4.82
